Columns and labels:
[1] = target: T1, Human immunodeficiency virus type 1 protease (Human immunodeficiency virus 1, UniProt Q72874); experiment: Inhibition constant for human immunodeficiency virus type 1 protease
MT4 = experiment: Effective dose of compound required to inhibit replication of human immunodeficiency virus type 1 in MT-4 cells; format: functional; conditions: read-out: ED50 (the source's name)
[2] = target: Human immunodeficiency virus type 1 protease (Human immunodeficiency virus 1) (UniProt Q72874)
Description: Association rate constant for human immunodeficiency virus type 1 protease

[3] = target: T1, Human immunodeficiency virus type 1 protease; experiment: Binding affinity for human immunodeficiency virus type 1 protease
[4] = target: Human immunodeficiency virus type 1 protease (Human immunodeficiency virus 1) (UniProt Q72874); remark: listed apart in the source
Description: Dissociation rate constant for human immunodeficiency virus type 1 protease

| Structure (SMILES) | Ki [1] [nM] | EC50 (MT4) [nM] | k on [2] [M⁻¹ s⁻¹] | Kd [3] [nM] | k off [4] [s⁻¹] |
| --- | --- | --- | --- | --- | --- |
| CC(C)[C@H](C)C(=O)NC(=O)[C@H](O)[C@H](O)[C@@H](O)[C@@H](Oc1ccc(-c2ccccn2)cc1)C(=O)NC(=O)[C@@H](C)C(C)C | 0.61 | 640 | 323000 | 1.18 | 0.000373 |
| CC(C)(C)NC(=O)c1ccccc1NC[C@H](O)[C@H](Cc1ccccc1)NC(=O)[C@H](CC(N)=O)NC(=O)c1ccc2ccccc2n1 |  | 10100 |  |  |  |
| CC(C)[C@H](C)C(=O)NC(=O)[C@H]([O-])[C@H](O)[C@@H](O)[C@@H](Oc1ccc(C2=CC=[S+]C2)cc1)C(=O)NC(=O)[C@@H](C)C(C)C | 1.2 | 40 | 348000 | 3.04 | 0.000432 |
| CC(C)[C@H](C)C(=O)NC(=O)[C@H](O)[C@H](O)[C@@H](O)[C@@H](Oc1ccccc1)C(=O)NC1c2ccccc2C[C@@H]1O (stereo partly drawn) | 0.05 | 120 | 5.97e+06 | 4.42 | 0.02 |
| CC(C)[C@H](C)C(=O)NC(=O)[C@H](O)[C@H](O)[C@@H](O)[C@@H](Oc1ccc(CCc2ccccc2)cc1)C(=O)NC(=O)[C@@H](C)C(C)C | 0.8 | 2050 | 81100 | 34.2 | 0.00163 |
| CC(C)[C@H](C)C(=O)NC(=O)[C@H](O)[C@H](O)[C@@H](O)[C@@H](Oc1ccc(Br)cc1)C(=O)NC(=O)[C@@H](C)C(C)C | 0.3 | 650 |  | 21.1 | 0.00169 |
| Cc1cccc(C)c1OCC(=O)N[C@@H](Cc1ccccc1)[C@@H](O)C[C@H](Cc1ccccc1)NC(=O)[C@H](C(C)C)N1CCCNC1=O [LOPINAVIR] |  | 10 | 6.63e+06 |  | 0.000654 |
| CC(C)[C@H](C)C(=O)NC(=O)[C@H](O)[C@H](O)[C@@H](O)[C@@H](Oc1ccc(-c2nccs2)cc1)C(=O)NC(=O)[C@@H](C)C(C)C | 0.55 | 240 | 477000 | 0.64 | 0.000303 |
| O=C(NC1c2ccccc2C[C@H]1O)[C@H](O)C[C@@H](O)[C@@H](Oc1ccccc1)C(=O)NC1c2ccccc2C[C@@H]1O (stereo partly drawn) |  | 1440 | 666000 | 35.8 | 0.02 |
| C[C@@H](Cc1ccc(O)cc1)C(=O)NC(=O)[C@H](O)[C@H](O)[C@@H](O)[C@@H](Oc1ccccc1)C(=O)NC(=O)[C@@H](C)Cc1ccc(O)cc1 | 5000 | > 67000 | 172 | 309000 | 0.06 |
| CC(C)CN(C[C@@H](O)[C@H](Cc1ccccc1)NC(=O)O[C@H]1CCOC1)S(=O)(=O)c1ccc(N)cc1 | 0.23 | 80 | 4.43e+06 | 1.1 | 0.00488 |
| CC(C)(C)NC(=O)[C@@H]1C[C@@H]2CCCC[C@@H]2CN1C[C@@H](O)[C@H](Cc1ccccc1)NC(=O)[C@H](CC(N)=O)NC(=O)c1ccc2ccccc2n1 |  | 10 |  |  |  |
| CC(C)[C@H](C)C(=O)NC(=O)[C@H](O)[C@@H](O)[C@H](O)[C@@H](Oc1ccccc1)C(=O)NC(=O)[C@@H](C)C(C)C | 40 | 22900 | 9200 | 2990 | 0.02 |
| Cc1cc(NS(=O)(=O)c2ccc(N)cc2)no1 [SULFAMETHOXAZOLE] | 10.1 | > 79000 | 188000 | 577 | 0.06 |
| O=S1(=O)N(Cc2ccc(CO)cc2)[C@H](COc2ccccc2)[C@H](O)[C@@H](O)[C@@H](COc2ccccc2)N1Cc1ccc(CO)cc1 |  | 1550 |  |  | 0.0273 |
| COC(=O)/C=C/c1ccc(O[C@@H](C(=O)NC(=O)[C@@H](C)C(C)C)[C@H](O)[C@@H](O)[C@@H](O)C(=O)NC(=O)[C@@H](C)C(C)C)cc1 | 0.09 | 2580 | 204000 | 1.95 | 0.000365 |
| CC(C)c1nc(CN(C)C(=O)N[C@H](C(=O)N[C@@H](Cc2ccccc2)C[C@H](O)[C@H](Cc2ccccc2)NC(=O)OCc2cncs2)C(C)C)cs1 [RITONAVIR] |  | 50 |  |  |  |
| CC(C)[C@H](C)C(=O)NC(=O)[C@H](O)[C@H](O)[C@@H](O)[C@@H](Oc1ccc(C2=C(O)C(=O)CCC2)cc1)C(=O)NC(=O)[C@@H](C)C(C)C | 0.3 | 5600 | 29300 | 17.5 | 0.000487 |
| CC(NO)c1cccc(CN2[C@H](COc3ccccc3)[C@H](O)[C@@H](O)[C@@H](COc3ccccc3)N(Cc3cccc(C(C)NO)c3)S2(=O)=O)c1 (stereo partly drawn) | 5.6 | 2900 | 512000 | 169 | 0.04 |
| CC(C)(C)NC(=O)[C@@H]1CN(Cc2cccnc2)CCN1C[C@@H](O)C[C@@H](Cc1ccccc1)C(=O)N[C@H]1c2ccccc2C[C@H]1O |  | 50 |  |  |  |
| CC(C)[C@H](C)C(=O)NC(=O)[C@H](O)[C@H](O)[C@@H](O)[C@@H](Oc1ccccc1)C(=O)NC(=O)[C@@H](C)C(C)C | 0.4 | 1320 | 355000 | 10.8 | 0.00367 |
| CC(C)(C)NC(=O)c1ccccc1NC[C@@H](O)[C@H](Cc1ccccc1)NC(=O)[C@H](CC(N)=O)NC(=O)OCc1ccccc1 |  | 3310 |  |  |  |
| Cc1c(O)cccc1C(=O)N[C@@H](CSc1ccccc1)[C@H](O)CN1C[C@H]2CCCC[C@H]2C[C@H]1C(=O)NC(C)(C)C |  | 20 |  |  |  |
| CC(C)[C@H](C)C(=O)NC(=O)[C@H](O)[C@H](O)[C@@H](O)[C@@H](Oc1ccc(-c2cccc([N+](=O)[O-])c2)cc1)C(=O)NC(=O)[C@@H](C)C(C)C | 1.4 | 160 | 181000 | 18.2 | 0.000817 |
| O=C(NC1c2ccccc2C[C@@H]1O)[C@H](O)[C@H](O)[C@@H](O)[C@@H](Oc1ccccc1)C(=O)NC1c2ccccc2C[C@@H]1O (stereo partly drawn) | 0.6 | 100 | 6.39e+06 | 13.9 | 0.01 |
| CCO[C@@H](C(=O)NC(=O)[C@@H](C)C(C)C)[C@H](O)[C@@H](O)[C@@H](O)C(=O)NC(=O)[C@@H](C)C(C)C |  | > 192000 | 134 | 38400 | 0.00485 |
| COC(=O)N[C@H](C(=O)N[C@@H](Cc1ccccc1)[C@@H](O)CN(Cc1ccc(-c2ccccn2)cc1)NC(=O)[C@@H](NC(=O)OC)C(C)(C)C)C(C)(C)C [ATAZANAVIR] | 0.24 | 6 | 1.67e+06 | 0.4 | 0.00069 |

— ChEMBL document CHEMBL1138847, “Improved structure-activity relationship analysis of HIV-1 protease inhibitors using interaction kinetic data” (J Med Chem, 2004)
